# Data from publication PMC10914731, “Homo-BacPROTAC-induced degradation of ClpC1 as a strategy against drug-resistant mycobacteria” (Nature Communications, 2024).
# Where “and” joins values, the source holds several entries; their conditions need not be identical. Equal entries are not always repeated. Where two headings read alike, the source gives them in different places. *1 amine or outer side, *2 acyl side, *3 side chain or, on linkers, in order; H or OH if unused. Where a SMILES comes first, the peptide text is derived from it. [ ]: non-standard residue; d: D form. X1 = C#CCn1cc(C[C@H](N[*:1])C(=O)[*:2])c2ccccc21; NMeLeu(5-OH,4R) = CN[C@@H](C[C@@H](C)CO)C(=O)O; Phe(βR-OMe) = CO[C@H](c1ccccc1)[C@H](N)C(=O)O; NMeL = CN[C@@H](CC(C)C)C(=O)O
# Assays:
# [1] = assay type: in vitro ADME, Mice
# Method in brief: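 Clearance values are expressed as % of liver blood flow, derived from first-order half-lives using the well-stirred liver model. Depletion of 1 µmol/l compound is followed by HPLC-MS/MS in NADPH-supplemented microsomes (0.5 mg/ml) at 37 °C, pH 7.5.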
# [2] = biological target: ClpC1-NTD substrate, M. tuberculosis ClpC1P1P2 (Mycobacterium tuberculosis, UniProt P9WPC9); test: biochemical; assay type: biochemical
# [3] = system: Mycobacterium intracellulare; test: microbe, parasite or virus in culture; assay type: cell-based
# Mycobacterium abscessus = test: microbe, parasite or virus in culture; assay type: cell-based
# [4] = system: replicating Mtb H37Rv cells; test: Resazurin growth assay, replicating Mtb H37Rv (Supplementary Fig. 2); assay type: cell-based, Mycobacterium tuberculosis; conditions: three replicate columns
# Salmonella typhimurium = test: MIC ESKAPES panel, Salmonella typhimurium; assay type: cell-based
# Method: (§1) Minimum inhibitory concentration (MIC) against ESKAPES panel of Gram positive and Gram negative pathogens (Enterococcus faecium, Staphylococcus aureus, Klebsiella pneumoniae, Acinetobacter baumannii, Pseudomonas aeruginosa, Enterobacter cloacae and Salmonella typhimurium [ESKAPES panel]) were determined at the FNDR by the standard broth dilution method [CLSI, M100]. […] Mueller Hinton broth (MHB) medium was used to grow ESKAPES panel strains. The individual cultures were added as 200 μL (inoculum of 3–7 × 10^5 cfu/ml) to the respective assay plates in each well to all columns, except the media control (200 μL of medium). […] The assay plates were incubated at 37 °C, and the results were noted on the 2nd day as turbidometric readout. The clear wells indicated inhibition of growth, while the turbid wells indicated uninhibited growth.
# [5] = assay type: in vitro ADME, Rat
# Enterobacter cloacae = test: MIC ESKAPES panel, Enterobacter cloacae; assay type: cell-based
# Method: as §1
# [6] = Mtb, mean of the measurements, read-out: DC50, Mean
# [7] = Experiment 2, three replicate columns
# [8] = Experiment 2, three replicate columns, read-out: MIC (µM) Mycobacterium intracellulare
# [9] = Mycobacterium intracellulare, Experiment 1, read-out: MIC Mycobacterium intracellulare
# [10] = Mycobacterium intracellulare, Experiment 2, three replicate columns, read-out: MIC (µM) Mycobacterium intracellulare
# [11] = Mycobacterium intracellulare, Experiment 2, three replicate columns, read-out: MIC (µg/ml) Mycobacterium intracellulare
# [12] = Mycobacterium intracellulare, mean ± SD, read-out: MIC Mycobacterium intracellulare
# [13] = Experiment 2, three replicate columns, read-out: MIC (µM) Mycobacterium abscessus
# [14] = Mycobacteroides abscessus, Experiment 1, read-out: MIC Mycobacterium abscessus
# [15] = Mycobacteroides abscessus, Experiment 2, three replicate columns, read-out: MIC (µM) Mycobacterium abscessus
# [16] = Mycobacteroides abscessus, Experiment 2, three replicate columns, read-out: MIC (µg/ml) Mycobacterium abscessus
# [17] = Mycobacteroides abscessus, mean ± SD, read-out: MIC Mycobacterium abscessus
# [18] = Gram-Negative Bacteria, replicates 1-3, listed as 8 (UdSBI-0545)
# [19] = Salmonella enterica, TYPHIMURIUM, Gram negative, n = 3 well replicates
# [20] = Salmonella enterica, TYPHIMURIUM, Gram-Negative Bacteria, replicates 1-3
# [21] = Enterobacter cloacae, Gram negative, n = 3 well replicates
# [22] = Enterobacter cloacae, Gram-Negative Bacteria, replicates 1-3
# [23] = Gram-Negative Bacteria, replicates 1-3, listed as 12 (UdSBI-4377)
# [24] = Gram-Negative Bacteria, replicates 1-3
SMILES,Microsomal Stability Mice ([1]; clearance in microsomes) [%Qh],"DC50 [2, 6] [µM]","MIC (µg/ml) Mycobacterium intracellulare [3, 7] [µg/mL]","MIC [3, 8] [µM]","MIC [3, 9]","MIC [3, 10] [µM]","MIC [3, 11] [µg/mL]","MIC [3, 12] [µM]",MIC (µg/ml) Mycobacterium abscessus (Mycobacterium abscessus; [7]) [µg/mL],MIC (Mycobacterium abscessus; [13]) [µM],MIC (Mycobacterium abscessus; [14]),MIC (Mycobacterium abscessus; [15]) [µM],MIC (Mycobacterium abscessus; [16]) [µg/mL],MIC (Mycobacterium abscessus; [17]) [µM],"Supplementary Figure 2 dose-response value, replicating H37Rv cells ([4]; Conc. 0.0488281 µM)","Supplementary Figure 2 dose-response value, replicating H37Rv cells ([4]; Conc. 0.0976562 µM)",MIC (Salmonella typhimurium; [19]) [µM],MIC (Salmonella typhimurium; [20]),MIC (Enterobacter cloacae; [21]) [µM],MIC (Enterobacter cloacae; [22]),also measured
COC(c1ccccc1)C1NC(=O)C(C)NC(=O)C(CC(C)CO)N(C)C(=O)C(Cc2cn(Cc3cn(CCOCCOCCOCCOCCn4cc(Cn5cc(CC6NC(=O)C(C(C)C)NC(=O)C(CC(C)C)N(C)C(=O)C(C(C)C)NC(=O)C(C(OC)c7ccccc7)NC(=O)C(C)NC(=O)C(CC(C)CO)N(C)C6=O)c6ccccc65)nn4)nn3)c3ccccc23)NC(=O)C(C(C)C)NC(=O)C(CC(C)C)N(C)C(=O)C(C(C)C)NC1=O (stereo not drawn) [Compound 8],72,8.3,>108.53,>50,> 109 µg/mL,> 50,> 109,> 50,>108.53,>50,> 50 µM and > 109 µg/mL,> 50,> 109,> 50,104.399 and 96.7961 and 102.12,93.8283 and 89.4675 and 92.0871,> 50,> 109 µg/mL,> 50,> 109 µg/mL,"MIC ([3]; Experiment 1, listed as 8 (UdSBI-0545), read-out: MIC Mycobacterium intracellulare): >50 µM; Supplementary Figure 2 dose-response value, replicating H37Rv cells ([4]; Conc. 0.195312 µM): 90.4271 and 81.4889 and 87.4903; Supplementary Figure 2 dose-response value, replicating H37Rv cells ([4]; Conc. 0.390625 µM): 51.3931 and 36.6199 and 50.2013; Supplementary Figure 2 dose-response value, replicating H37Rv cells ([4]; Conc. 0.78125 µM): -3.993 and -4.461 and -3.242; Supplementary Figure 2 dose-response value, replicating H37Rv cells ([4]; Conc. 1.5625 µM): -4.627 and -5.471 and -5.181; Supplementary Figure 2 dose-response value, replicating H37Rv cells ([4]; Conc. 3.125 µM): -6.152 and -6.465 and -5.866; Supplementary Figure 2 dose-response value, replicating H37Rv cells ([4]; Conc. 6.25 µM): -7.417 and -8.76 and -6.686; Supplementary Figure 2 dose-response value, replicating H37Rv cells ([4]; Conc. 25 µM): -8.655 and -4.856 and -8.241; Supplementary Figure 2 dose-response value, replicating H37Rv cells ([4]; Conc. 50 µM): -5.541 and -9.178 and -8.98; Supplementary Figure 2 dose-response value, replicating H37Rv cells ([4]; Conc. 100 µM): -7.259 and -9.127 and -7.68; MIC (Salmonella typhimurium; [18]): >50 µM; Hepatocyte Rat ([5]; clearance in hepatocytes): 6 %Qh; MIC (Enterobacter cloacae; [18]): >50 µM"
COC(c1ccccc1)C1NC(=O)C(C)NC(=O)C(CC(C)CO)N(C)C(=O)C(Cc2cn(C)c3ccccc23)NC(=O)C(Cc2cn(CCCCCn3cc(CC4NC(=O)C(CC(C)C)N(C)C(=O)C(C(C)C)NC(=O)C(C(OC)c5ccccc5)NC(=O)C(C)NC(=O)C(CC(C)CO)N(C)C(=O)C(Cc5cn(C)c6ccccc56)NC4=O)nn3)nn2)NC(=O)C(CC(C)C)N(C)C(=O)C(C(C)C)NC1=O (stereo not drawn) [Compound 12],–,–,>99.02,>50,> 99 µg/mL,> 50,> 99,> 50,>99.02,>50,> 50 µM and > 99 µg/mL,> 50,> 99,> 50,–,–,> 50,> 99 µg/mL,> 50,> 99 µg/mL,"Microsomal Stability Mice ([1]; mouse, microsomes, pH 7.5): < 24 %Qh; Microsomal Stability Mouse QH ([1]; mouse, microsomes, pH 7.5): <24.2%; DC50 ([2]; read-out: DC50, Mean): 7.1 µM; MIC ([3]; Experiment 1, listed as 12 (UdSBI-4377), read-out: MIC Mycobacterium intracellulare): >50 µM; MIC (Salmonella typhimurium; [23]): >50 µM; Hepatocyte Rat ([5]; rat, pH 7.4): 6 %Qh; MIC (Enterobacter cloacae; [23]): >50 µM"
"C#CCn1cc(C[C@@H]2NC(=O)[C@H](C(C)C)NC(=O)[C@H](CC(C)C)N(C)C(=O)[C@H](C(C)C)NC(=O)[C@H]([C@H](OC)c3ccccc3)NC(=O)[C@H](C)NC(=O)[C@H](C[C@@H](C)CO)N(C)C2=O)c2ccccc21 [Compound 5] (cyclo(A[Phe(βR-OMe)]V[NMeL]V[X1][NMeLeu(5-OH,4R)]))",> 88,> 100,5.88,6.25,5.9 µg/mL,6.25,5.88,6.3,5.88,6.25,3.1 µM and 2.9 µg/mL,6.25,5.88,5.5 ± 1.6,98.0652 and 83.9808 and 80.51,93.0506 and 83.7138 and 106.369,> 50,> 47 µg/mL,> 50,> 47 µg/mL,"Microsomal Stability Mouse QH ([1]; Mouse): >88.400%; DC50 ([2]; Mtb, Measurement 1-4, read-out: DC50, single measurements): > 100 µM; MIC ([3]; Experiment 1, read-out: MIC Mycobacterium intracellulare): 6.3 µM; Supplementary Figure 2 dose-response value, replicating H37Rv cells ([4]; Conc. 0.195312 µM): 80.9008 and 79.6239 and 83.1102; Supplementary Figure 2 dose-response value, replicating H37Rv cells ([4]; Conc. 0.390625 µM): 100.805 and 94.8498 and 103.432; Supplementary Figure 2 dose-response value, replicating H37Rv cells ([4]; Conc. 0.78125 µM): 90.0247 and 88.21 and 77.7086; Supplementary Figure 2 dose-response value, replicating H37Rv cells ([4]; Conc. 1.5625 µM): 89.1967 and 85.691 and 102.875; Supplementary Figure 2 dose-response value, replicating H37Rv cells ([4]; Conc. 3.125 µM): 81.2645 and 83.4662 and 77.6892; Supplementary Figure 2 dose-response value, replicating H37Rv cells ([4]; Conc. 6.25 µM): 79.2563 and 81.2993 and 97.3301; Supplementary Figure 2 dose-response value, replicating H37Rv cells ([4]; Conc. 25 µM): 23.3248 and 18.2173 and 22.7212; Supplementary Figure 2 dose-response value, replicating H37Rv cells ([4]; Conc. 50 µM): 9.562 and 6.199 and 9.0701; Supplementary Figure 2 dose-response value, replicating H37Rv cells ([4]; Conc. 100 µM): 10.3547 and 8.316 and 5.8624; MIC (Salmonella typhimurium; [24]): >50 µM; Hepatocyte Rat ([5]; rat, pH 7.4): 51 %Qh; Hepatocyte Stability Rat QH ([5]; rat, pH 7.4): 51.066%; MIC (Enterobacter cloacae; [24]): >50 µM"
CO[C@H](c1ccccc1)[C@@H]1NC(=O)[C@H](C)NC(=O)[C@H](C[C@@H](C)CO)N(C)C(=O)[C@H](Cc2cn(Cc3cn(CCOCCn4cc(Cn5cc(C[C@@H]6NC(=O)[C@H](C(C)C)NC(=O)[C@H](CC(C)C)N(C)C(=O)[C@H](C(C)C)NC(=O)[C@H]([C@H](OC)c7ccccc7)NC(=O)[C@H](C)NC(=O)[C@H](C[C@@H](C)CO)N(C)C6=O)c6ccccc65)nn4)nn3)c3ccccc23)NC(=O)[C@H](C(C)C)NC(=O)[C@H](CC(C)C)N(C)C(=O)[C@H](C(C)C)NC1=O [Compound 6],43,5.8,–,–,–,–,–,–,–,–,–,–,–,–,–,–,–,–,–,–,"Microsomal Stability Mouse QH ([1]; Mouse): 42.900%; 1-Dmax, single measurements ([2]; Mtb, Measurement 1-4): 67.3% and 57.3% and 45.9% and 46.4%; 1-Dmax (percent substrate remaining at maximal degradation) ([2]; Mtb, mean of the measurements, read-out: 1-Dmax, Mean): 54%; Hepatocyte Rat ([5]; clearance in hepatocytes): 6 %Qh"
"COc1c(N2C[C@@H]3CCCN[C@@H]3C2)c(F)cc2c(=O)c(C(=O)O)cn(C3CC3)c12 [Moxifloxacin, reference compound]",–,–,0.50,1.25,1.25 µM and 0.5 µg/mL,1.25,0.5,1.2,1,2.49,2.49 µM and 1 µg/mL,2.49,1,2.5,–,–,0.6,0.62 µM and 0.25 µg/mL,0.3,0.31 µM and 0.125 µg/mL,–
